Measurements reported in paper PMC9571063 (Molecules, 2022).

Assays:
[1] = target: T1, ABL1(F317I)-phosphorylated (Homo sapiens, UniProt P00519, F317I); experiment: KINOMEscan; type: binding; settings: read-out: Percent Control
T1 construct: purchased Eurofins DiscoverX KINOMEscan (scanMAX 468)

[2] = target: T2, ABL1(T315I)-nonphosphorylated (Homo sapiens, UniProt P00519, T315I); experiment: KINOMEscan; type: binding; settings: read-out: Percent Control
T2 construct: purchased Eurofins DiscoverX KINOMEscan (scanMAX 468)

AKT2 = target: T3, AKT2 (Homo sapiens, UniProt P31751); experiment: KINOMEscan; type: binding; settings: read-out: Percent Control
T3 construct: purchased Eurofins DiscoverX KINOMEscan (scanMAX 468)

AXL = target: T4, AXL (Homo sapiens, UniProt P30530); experiment: KINOMEscan; type: binding; settings: read-out: Percent Control
T4 construct: purchased Eurofins DiscoverX KINOMEscan (scanMAX 468)

CAMK1 = target: T5, CAMK1 (Homo sapiens, UniProt Q14012); experiment: KINOMEscan; type: binding; settings: read-out: Percent Control
T5 construct: purchased Eurofins DiscoverX KINOMEscan (scanMAX 468)

CAMK1B = target: T6, CAMK1B (Homo sapiens, UniProt Q6P2M8); experiment: KINOMEscan; type: binding; settings: read-out: Percent Control
T6 construct: purchased Eurofins DiscoverX KINOMEscan (scanMAX 468)
T6 sequence (Q6P2M8 whole entry): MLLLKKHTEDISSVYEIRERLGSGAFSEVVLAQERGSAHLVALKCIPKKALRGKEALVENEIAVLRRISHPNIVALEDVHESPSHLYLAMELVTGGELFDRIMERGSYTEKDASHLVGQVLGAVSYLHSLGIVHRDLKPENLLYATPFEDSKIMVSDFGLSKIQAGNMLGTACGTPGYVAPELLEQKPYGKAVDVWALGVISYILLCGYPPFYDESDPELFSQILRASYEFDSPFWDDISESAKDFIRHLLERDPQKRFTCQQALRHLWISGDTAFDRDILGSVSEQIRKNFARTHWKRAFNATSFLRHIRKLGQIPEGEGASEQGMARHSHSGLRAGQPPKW

CTK = target: T7, CTK (Homo sapiens, UniProt P42679); experiment: KINOMEscan; type: binding; settings: read-out: Percent Control
T7 construct: purchased Eurofins DiscoverX KINOMEscan (scanMAX 468)

DLK = target: T8, DLK (Homo sapiens, UniProt Q12852); experiment: KINOMEscan; type: binding; settings: read-out: Percent Control
T8 construct: purchased Eurofins DiscoverX KINOMEscan (scanMAX 468)

DRAK1 = target: T9, DRAK1 (Homo sapiens, UniProt Q9UEE5); experiment: KINOMEscan; type: binding; settings: read-out: Percent Control
T9 construct: purchased Eurofins DiscoverX KINOMEscan (scanMAX 468)
T9 sequence (Q9UEE5 whole entry): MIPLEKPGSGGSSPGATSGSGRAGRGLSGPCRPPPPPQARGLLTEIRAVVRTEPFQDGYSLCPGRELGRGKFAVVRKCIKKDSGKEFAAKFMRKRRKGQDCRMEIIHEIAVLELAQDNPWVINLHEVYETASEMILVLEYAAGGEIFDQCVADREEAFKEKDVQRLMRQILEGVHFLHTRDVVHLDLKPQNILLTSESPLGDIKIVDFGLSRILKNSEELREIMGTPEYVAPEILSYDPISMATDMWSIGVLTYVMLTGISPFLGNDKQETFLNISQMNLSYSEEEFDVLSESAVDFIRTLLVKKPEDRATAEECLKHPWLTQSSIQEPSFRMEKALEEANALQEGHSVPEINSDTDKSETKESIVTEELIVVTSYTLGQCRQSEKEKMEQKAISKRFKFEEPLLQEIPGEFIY

EGFR(G719C) = target: T10, EGFR(G719C) (Homo sapiens, UniProt P00533, G719C); experiment: KINOMEscan; type: binding; settings: read-out: Percent Control
T10 construct: purchased Eurofins DiscoverX KINOMEscan (scanMAX 468)

EGFR(L747-T751del,Sins) = experiment: KINOMEscan; type: binding, human; settings: 1 μM
EGFR(L858R,T790M) = target: T11, EGFR(L858R,T790M) (Homo sapiens, UniProt P00533, L858R/T790M); experiment: KINOMEscan; type: binding; settings: read-out: Percent Control
T11 construct: purchased Eurofins DiscoverX KINOMEscan (scanMAX 468)

EPHA6 = target: T12, EPHA6 (Homo sapiens, UniProt Q9UF33); experiment: KINOMEscan; type: binding; settings: read-out: Percent Control
T12 construct: purchased Eurofins DiscoverX KINOMEscan (scanMAX 468)

ERK4 = target: T13, ERK4 (Homo sapiens, UniProt P31152); experiment: KINOMEscan; type: binding; settings: read-out: Percent Control
T13 construct: purchased Eurofins DiscoverX KINOMEscan (scanMAX 468)

HASPIN = target: T14, HASPIN (Homo sapiens, UniProt Q8TF76); experiment: KINOMEscan; type: binding; settings: read-out: Percent Control
T14 construct: purchased Eurofins DiscoverX KINOMEscan (scanMAX 468)
T14 sequence (Q8TF76 whole entry): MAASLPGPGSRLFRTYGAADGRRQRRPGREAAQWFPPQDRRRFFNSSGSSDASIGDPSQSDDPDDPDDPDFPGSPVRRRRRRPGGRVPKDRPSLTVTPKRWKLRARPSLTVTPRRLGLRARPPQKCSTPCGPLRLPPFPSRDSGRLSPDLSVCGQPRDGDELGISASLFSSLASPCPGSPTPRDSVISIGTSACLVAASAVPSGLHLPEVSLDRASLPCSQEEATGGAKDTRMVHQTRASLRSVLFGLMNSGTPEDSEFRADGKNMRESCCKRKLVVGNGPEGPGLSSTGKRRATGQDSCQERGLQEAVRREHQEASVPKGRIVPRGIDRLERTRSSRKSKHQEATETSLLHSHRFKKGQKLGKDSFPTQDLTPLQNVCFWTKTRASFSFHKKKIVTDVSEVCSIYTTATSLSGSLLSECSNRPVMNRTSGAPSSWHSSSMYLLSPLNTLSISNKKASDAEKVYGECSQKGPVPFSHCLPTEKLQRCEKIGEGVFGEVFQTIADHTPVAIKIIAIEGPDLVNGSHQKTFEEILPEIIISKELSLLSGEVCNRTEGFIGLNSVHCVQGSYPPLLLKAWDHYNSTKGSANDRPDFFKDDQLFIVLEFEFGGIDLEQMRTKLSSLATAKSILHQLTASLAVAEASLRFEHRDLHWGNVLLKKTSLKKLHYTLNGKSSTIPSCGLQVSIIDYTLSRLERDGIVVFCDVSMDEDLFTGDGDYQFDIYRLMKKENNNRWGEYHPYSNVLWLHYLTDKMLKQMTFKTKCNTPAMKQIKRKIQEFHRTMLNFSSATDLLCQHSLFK

[3] = target: T15, JAK3(JH1domain-catalytic) (Homo sapiens, UniProt P52333); experiment: KINOMEscan; type: binding; settings: read-out: Percent Control
T15 construct: JAK3(JH1domain-catalytic); purchased Eurofins DiscoverX KINOMEscan (scanMAX 468)
T15 sequence (P52333 813-1124 limits assumed): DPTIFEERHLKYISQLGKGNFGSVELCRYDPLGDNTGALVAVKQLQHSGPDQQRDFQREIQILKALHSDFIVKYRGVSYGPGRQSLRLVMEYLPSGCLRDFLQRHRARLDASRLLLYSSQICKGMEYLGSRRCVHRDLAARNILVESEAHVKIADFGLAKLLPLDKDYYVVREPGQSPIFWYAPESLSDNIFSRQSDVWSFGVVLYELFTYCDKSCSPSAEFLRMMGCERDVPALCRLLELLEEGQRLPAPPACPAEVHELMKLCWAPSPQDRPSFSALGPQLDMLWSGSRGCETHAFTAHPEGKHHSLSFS

KIT = target: T16, KIT (Homo sapiens, UniProt P10721); experiment: KINOMEscan; type: binding; settings: read-out: Percent Control
T16 construct: purchased Eurofins DiscoverX KINOMEscan (scanMAX 468)
T16 sequence (P10721 26-976): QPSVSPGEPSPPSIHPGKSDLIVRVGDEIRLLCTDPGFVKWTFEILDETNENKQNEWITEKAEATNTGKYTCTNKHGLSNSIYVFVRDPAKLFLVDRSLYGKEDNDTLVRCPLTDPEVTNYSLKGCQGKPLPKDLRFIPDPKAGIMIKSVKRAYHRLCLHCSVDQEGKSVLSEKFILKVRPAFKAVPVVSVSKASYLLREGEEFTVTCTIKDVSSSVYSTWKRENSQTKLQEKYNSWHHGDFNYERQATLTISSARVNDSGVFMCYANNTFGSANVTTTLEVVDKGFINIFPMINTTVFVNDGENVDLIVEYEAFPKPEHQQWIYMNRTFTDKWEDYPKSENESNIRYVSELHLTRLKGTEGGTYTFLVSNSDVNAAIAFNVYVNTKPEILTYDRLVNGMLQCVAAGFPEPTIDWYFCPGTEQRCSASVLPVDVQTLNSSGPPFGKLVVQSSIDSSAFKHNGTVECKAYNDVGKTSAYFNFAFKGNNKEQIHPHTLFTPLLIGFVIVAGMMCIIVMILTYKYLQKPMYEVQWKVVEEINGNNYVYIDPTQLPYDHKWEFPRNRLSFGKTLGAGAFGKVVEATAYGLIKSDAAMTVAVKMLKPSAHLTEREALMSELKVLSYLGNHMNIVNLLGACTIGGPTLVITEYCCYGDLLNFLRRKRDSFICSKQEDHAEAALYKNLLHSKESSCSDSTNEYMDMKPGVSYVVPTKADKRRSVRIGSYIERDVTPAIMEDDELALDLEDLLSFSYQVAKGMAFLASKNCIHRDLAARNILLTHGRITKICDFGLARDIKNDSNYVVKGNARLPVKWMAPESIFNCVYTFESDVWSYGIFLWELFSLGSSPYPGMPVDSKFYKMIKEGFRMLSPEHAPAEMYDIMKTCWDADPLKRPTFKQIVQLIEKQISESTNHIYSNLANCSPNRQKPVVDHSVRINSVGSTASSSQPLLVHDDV

KIT-autoinhibited = target: T17, KIT-autoinhibited (Homo sapiens, UniProt P10721); experiment: KINOMEscan; type: binding; settings: read-out: Percent Control
T17 construct: purchased Eurofins DiscoverX KINOMEscan (scanMAX 468)
T17 sequence (P10721 26-976): as above

LCK = target: T18, LCK (Homo sapiens, UniProt P06239); experiment: KINOMEscan; type: binding; settings: read-out: Percent Control
T18 construct: purchased Eurofins DiscoverX KINOMEscan (scanMAX 468)

LOK = target: T19, LOK (Homo sapiens, UniProt O94804); experiment: KINOMEscan; type: binding; settings: read-out: Percent Control
T19 construct: purchased Eurofins DiscoverX KINOMEscan (scanMAX 468)

MAP4K3 = target: T20, MAP4K3 (Homo sapiens, UniProt Q8IVH8); experiment: KINOMEscan; type: binding; settings: read-out: Percent Control
T20 construct: purchased Eurofins DiscoverX KINOMEscan (scanMAX 468)

MLK3 = target: T21, MLK3 (Homo sapiens, UniProt Q16584); experiment: KINOMEscan; type: binding; settings: read-out: Percent Control
T21 construct: purchased Eurofins DiscoverX KINOMEscan (scanMAX 468)

NDR2 = target: T22, NDR2 (Homo sapiens, UniProt Q9Y2H1); experiment: KINOMEscan; type: binding; settings: read-out: Percent Control
T22 construct: purchased Eurofins DiscoverX KINOMEscan (scanMAX 468)

p38-delta = target: T23, p38-delta (Homo sapiens, UniProt O15264); experiment: KINOMEscan; type: binding; settings: read-out: Percent Control
T23 construct: purchased Eurofins DiscoverX KINOMEscan (scanMAX 468)

PAK4 = target: T24, PAK4 (Homo sapiens, UniProt O96013); experiment: KINOMEscan; type: binding; settings: read-out: Percent Control
T24 construct: purchased Eurofins DiscoverX KINOMEscan (scanMAX 468)

PCTK1 = target: T25, PCTK1 (Homo sapiens, UniProt Q00536); experiment: KINOMEscan; type: binding; settings: read-out: Percent Control
T25 construct: purchased Eurofins DiscoverX KINOMEscan (scanMAX 468)

PIK4CB = target: T26, PIK4CB (Homo sapiens, UniProt Q9UBF8); experiment: KINOMEscan; type: binding; settings: read-out: Percent Control
T26 construct: purchased Eurofins DiscoverX KINOMEscan (scanMAX 468)

PLK3 = target: T27, PLK3 (Homo sapiens, UniProt Q9H4B4); experiment: KINOMEscan; type: binding; settings: read-out: Percent Control
T27 construct: purchased Eurofins DiscoverX KINOMEscan (scanMAX 468)

PRP4 = target: T28, PRP4 (Homo sapiens, UniProt Q13523); experiment: KINOMEscan; type: binding; settings: read-out: Percent Control
T28 construct: purchased Eurofins DiscoverX KINOMEscan (scanMAX 468)
T28 sequence (Q13523 whole entry): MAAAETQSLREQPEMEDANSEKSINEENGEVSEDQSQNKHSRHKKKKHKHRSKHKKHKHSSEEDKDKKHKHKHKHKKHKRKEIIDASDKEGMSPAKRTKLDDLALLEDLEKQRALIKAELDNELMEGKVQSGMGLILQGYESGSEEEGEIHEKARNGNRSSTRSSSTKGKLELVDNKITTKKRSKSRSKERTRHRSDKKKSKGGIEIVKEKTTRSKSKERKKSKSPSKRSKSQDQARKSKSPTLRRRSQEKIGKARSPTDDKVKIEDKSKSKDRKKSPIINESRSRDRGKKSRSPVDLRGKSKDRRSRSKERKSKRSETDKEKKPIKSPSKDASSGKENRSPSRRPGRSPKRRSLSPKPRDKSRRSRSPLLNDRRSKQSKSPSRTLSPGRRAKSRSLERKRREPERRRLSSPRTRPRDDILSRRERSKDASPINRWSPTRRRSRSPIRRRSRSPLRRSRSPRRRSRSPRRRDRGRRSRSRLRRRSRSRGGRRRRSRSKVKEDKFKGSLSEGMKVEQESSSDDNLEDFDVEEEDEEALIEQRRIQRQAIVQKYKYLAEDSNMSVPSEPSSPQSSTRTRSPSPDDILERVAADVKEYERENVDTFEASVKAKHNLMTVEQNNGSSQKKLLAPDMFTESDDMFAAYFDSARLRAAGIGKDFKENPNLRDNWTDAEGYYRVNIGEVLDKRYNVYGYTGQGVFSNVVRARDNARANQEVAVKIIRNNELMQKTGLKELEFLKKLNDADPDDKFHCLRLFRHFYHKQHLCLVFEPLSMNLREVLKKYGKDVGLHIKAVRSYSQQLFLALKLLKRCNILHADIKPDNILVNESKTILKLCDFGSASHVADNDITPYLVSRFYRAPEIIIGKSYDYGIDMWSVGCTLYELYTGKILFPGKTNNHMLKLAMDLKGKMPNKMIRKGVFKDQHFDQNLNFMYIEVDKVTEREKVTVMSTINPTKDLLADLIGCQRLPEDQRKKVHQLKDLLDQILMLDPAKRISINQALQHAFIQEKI

RIOK1 = target: T29, RIOK1 (Homo sapiens, UniProt Q9BRS2); experiment: KINOMEscan; type: binding; settings: read-out: Percent Control
T29 construct: purchased Eurofins DiscoverX KINOMEscan (scanMAX 468)

RIPK2 = target: T30, RIPK2 (Homo sapiens, UniProt O43353); experiment: KINOMEscan; type: binding; settings: read-out: Percent Control
T30 construct: purchased Eurofins DiscoverX KINOMEscan (scanMAX 468)
T30 sequence (O43353 whole entry): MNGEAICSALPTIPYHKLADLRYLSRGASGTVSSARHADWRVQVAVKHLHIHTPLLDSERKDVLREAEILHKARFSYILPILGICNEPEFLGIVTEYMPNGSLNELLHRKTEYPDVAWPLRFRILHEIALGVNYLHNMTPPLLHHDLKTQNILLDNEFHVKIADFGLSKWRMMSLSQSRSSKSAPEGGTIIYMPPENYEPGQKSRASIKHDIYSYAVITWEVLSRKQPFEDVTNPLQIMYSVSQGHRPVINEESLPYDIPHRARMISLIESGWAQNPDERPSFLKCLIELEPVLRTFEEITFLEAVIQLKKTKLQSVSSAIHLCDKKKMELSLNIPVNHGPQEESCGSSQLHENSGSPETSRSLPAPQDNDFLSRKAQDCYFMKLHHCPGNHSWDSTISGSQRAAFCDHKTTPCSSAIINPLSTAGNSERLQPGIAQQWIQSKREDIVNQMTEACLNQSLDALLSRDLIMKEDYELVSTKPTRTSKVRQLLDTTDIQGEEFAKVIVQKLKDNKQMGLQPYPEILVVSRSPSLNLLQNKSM

[4] = target: T31, RSK1(Kin.Dom.1-N-terminal) (Homo sapiens, UniProt Q15418); experiment: KINOMEscan; type: binding; settings: read-out: Percent Control
T31 construct: RSK1(Kin.Dom.1-N-terminal); purchased Eurofins DiscoverX KINOMEscan (scanMAX 468)

S6K1 = target: T32, S6K1 (Homo sapiens, UniProt P23443); experiment: KINOMEscan; type: binding; settings: read-out: Percent Control
T32 construct: purchased Eurofins DiscoverX KINOMEscan (scanMAX 468)

SGK2 = target: T33, SGK2 (Homo sapiens, UniProt Q9HBY8); experiment: KINOMEscan; type: binding; settings: read-out: Percent Control
T33 construct: purchased Eurofins DiscoverX KINOMEscan (scanMAX 468)

STK35 = target: T34, STK35 (Homo sapiens, UniProt Q8TDR2); experiment: KINOMEscan; type: binding; settings: read-out: Percent Control
T34 construct: purchased Eurofins DiscoverX KINOMEscan (scanMAX 468)

TESK1 = target: T35, TESK1 (Homo sapiens, UniProt Q15569); experiment: KINOMEscan; type: binding; settings: read-out: Percent Control
T35 construct: purchased Eurofins DiscoverX KINOMEscan (scanMAX 468)
T35 sequence (Q15569 whole entry): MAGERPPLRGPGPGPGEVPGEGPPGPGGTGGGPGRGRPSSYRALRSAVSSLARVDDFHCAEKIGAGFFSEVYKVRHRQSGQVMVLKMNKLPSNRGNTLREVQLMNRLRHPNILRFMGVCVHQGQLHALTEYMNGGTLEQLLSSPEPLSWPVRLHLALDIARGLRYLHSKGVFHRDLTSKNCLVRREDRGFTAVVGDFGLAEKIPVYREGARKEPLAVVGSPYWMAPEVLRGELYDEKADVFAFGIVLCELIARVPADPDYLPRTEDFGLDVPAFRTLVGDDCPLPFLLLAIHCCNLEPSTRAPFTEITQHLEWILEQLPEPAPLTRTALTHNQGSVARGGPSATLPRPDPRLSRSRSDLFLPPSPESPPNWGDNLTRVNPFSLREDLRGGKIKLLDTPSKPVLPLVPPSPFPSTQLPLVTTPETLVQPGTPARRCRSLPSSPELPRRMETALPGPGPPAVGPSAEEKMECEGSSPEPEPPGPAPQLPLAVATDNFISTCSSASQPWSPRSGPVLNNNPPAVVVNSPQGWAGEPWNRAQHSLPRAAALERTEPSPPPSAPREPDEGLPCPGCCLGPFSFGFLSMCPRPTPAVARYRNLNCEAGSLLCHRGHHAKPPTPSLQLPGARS

TIE1 = target: T36, TIE1 (Homo sapiens, UniProt P35590); experiment: KINOMEscan; type: binding; settings: read-out: Percent Control
T36 construct: purchased Eurofins DiscoverX KINOMEscan (scanMAX 468)

TNK2 = target: T37, TNK2 (Homo sapiens, UniProt Q07912); experiment: KINOMEscan; type: binding; settings: read-out: Percent Control
T37 construct: purchased Eurofins DiscoverX KINOMEscan (scanMAX 468)

WEE2 = target: T38, WEE2 (Homo sapiens, UniProt P0C1S8); experiment: KINOMEscan; type: binding; settings: read-out: Percent Control
T38 construct: purchased Eurofins DiscoverX KINOMEscan (scanMAX 468)

YANK3 = target: T39, YANK3 (Homo sapiens, UniProt Q86UX6); experiment: KINOMEscan; type: binding; settings: read-out: Percent Control
T39 construct: purchased Eurofins (KINOMEscan, DiscoverX)

ZAP70 = target: T40, ZAP70 (Homo sapiens, UniProt P43403); experiment: KINOMEscan; type: binding; settings: read-out: Percent Control
T40 construct: purchased Eurofins (KINOMEscan, DiscoverX)

MCF7 = system: MCF7; design: method as in ref 14 (a number printed in a supplementary file, which may have a reference list of its own: not looked up in the article's list); settings: DB18[a], footnote not given; read-out: Cytotoxic studies IC50 MCF7; cited from earlier work

With `Cc1ccc(-n2cc(COc3cccc4cnc(Nc5cccc(Cl)c5)nc34)nn2)c([N+](=O)[O-])c1` [DB18] the remaining binding at 1 µM [1] was 100%, the remaining binding at 1 µM [2] was 89% and the remaining binding at 1 µM (AKT2) was 100%. The remaining binding at 1 µM (AXL) was 87%, the remaining binding at 1 µM (CAMK1) was 100% and the remaining binding at 1 µM (CAMK1B) was 86%. For the same compound, the remaining binding at 1 µM (CTK) was 96%, the remaining binding at 1 µM (DLK) was 100% and the remaining binding at 1 µM (DRAK1) was 100%. For the same compound, the remaining binding at 1 µM (EGFR(G719C)) was 100%, the “Percent Control” value (EGFR(L747-T751del,Sins)) was 100 % Ctrl and the remaining binding at 1 µM (EGFR(L858R,T790M)) was 100%. For the same compound, the remaining binding at 1 µM (EPHA6) was 100%, the remaining binding at 1 µM (ERK4) was 100% and the remaining binding at 1 µM (HASPIN) was 72%. For the same compound, the remaining binding at 1 µM [3] was 93%, the remaining binding at 1 µM (KIT) was 100% and the remaining binding at 1 µM (KIT-autoinhibited) was 97%. The remaining binding at 1 µM (LCK) was 100%, the remaining binding at 1 µM (LOK) was 100% and the remaining binding at 1 µM (MAP4K3) was 95%. The remaining binding at 1 µM (MLK3) was 100%, the remaining binding at 1 µM (NDR2) was 95% and the remaining binding at 1 µM (p38-delta) was 100%. It also gave a remaining binding at 1 µM (PAK4) of 100%, a remaining binding at 1 µM (PCTK1) of 94% and a remaining binding at 1 µM (PIK4CB) of 94%. The remaining binding at 1 µM (PLK3) was 98%, the remaining binding at 1 µM (PRP4) was 100% and the remaining binding at 1 µM (RIOK1) was 100%. It also gave a remaining binding at 1 µM (RIPK2) of 98%, a remaining binding at 1 µM [4] of 98% and a remaining binding at 1 µM (S6K1) of 94%. The remaining binding at 1 µM (SGK2) was 100%, the remaining binding at 1 µM (STK35) was 100% and the remaining binding at 1 µM (TESK1) was 95%. The remaining binding at 1 µM (TIE1) was 100%, the remaining binding at 1 µM (TNK2) was 100% and the remaining binding at 1 µM (WEE2) was 100%. For the same compound, the remaining binding at 1 µM (YANK3) was 100%, the remaining binding at 1 µM (ZAP70) was 100% and the IC50 (MCF7) was 4 µM.
